The text below walks through data of patent US20140227173A1, “CANCER TREATMENT WITH GAMMA-SECRETASE INHIBITORS” (The Johns Hopkins University, priority 2006, published 2014).

The test system of data set [1] is PFSK. Briefly: Flow cytometric analysis of the cell cycle. Format: cell-based. As to conditions: 2 μM. From the text:
(§1) Double immunolabeling, using antibodies specific for nestin and for Ki67, a marker of proliferating cells, was used to determine effects of Notch pathway blockade on the cell cycle. […] While adult neural stem cells are generally thought to be relatively quiescent, during embryonic growth of the brain the stem cell compartment is highly proliferative. The high rate of division observed in stem-like MB cells may reflect their similarity to those in fetal germinal epithelium.
(§2) Flow cytometric analysis of S-phase fraction and cell cycle kinetics was performed using a FACSCalibur (Becton Dickinson, San Jose, Calif.) with CELL Quest, version 3.3 software (15). CD133 studies were performed using the same instrument, with antibodies from Miltenyi (Miltenyi Biotec, Auburn, Calif.) according to the manufacturer's instructions. Cells expressing levels of CD133 higher than those seen in IgG controls were considered positive. For analyses of side population, cells (10^6/ml) were incubated with Hoechst 33342 (3 μM, Molecular Probes, Carlsbad, Calif.) for 90 minutes at 37° C. in DMEM containing 2% FBS. Prior to analysis, cells were washed and resuspended in 2 μg/ml PI (Sigma, St. Louis, Mo.). Cells were analyzed on a LSR flow cytometer equipped with 424/44 nm band pass and 670 nm long pass optical filters (Omega Optical, Brattleboro, Vt.). […]
In general terms: In flow cytometry, cells or beads pass a laser one at a time.

For data set [2], the system named is DAOY. Description: Flow cytometric analysis of the cell cycle. Format: cell-based. To be noted: 2 μM.
From the text: as §1, §2

In data set [3] the test system is D283. Briefly: Flow cytometric analysis of CD133-positive fraction. Format: cell-based. As to conditions: 2 μM. The text has this:
The effects of Notch on the CD133-positive CSC subpopulation were first examined. Singh and colleagues have shown that only CD133-positive MB and glioblastoma cells are able to form multipotent neurosphere clones or tumor xenografts (6, 12). Another type of brain tumor, ependymoma, also appears to contain a small fraction of CD133-positive cells uniquely capable of initiating tumor xenografts (9). […] The D283Med and D425Med lines, which grow in suspension, contained higher percentages of CD133 positive cells. Sorting of DAOY cultures using magnetic beads coated with antibodies specific for CD133 generated an enriched population in which 30% of cells expressed the stem cell marker, and a negative population in which less than 1% of cells were CD133-positive. […] Thus Notch signaling appears to be especially active in CSC, raising the possibility that inhibition of this pathway may target the CSC population.
The DAOY, PFSK, D283 and D425 Med cell lines were obtained from the American Type Culture Collection. The low-passage MB line MB2 was derived from a tumor resected at Johns Hopkins Hospital. For treatment studies, cell were plated and allowed to grow overnight in MEM (Invitrogen, Carlsbad, Calif.) containing 10% FBS, then media was replaced the next morning with low serum (0.5% FBS) MEM containing GSI dissolved in DMSO. RNA and protein extractions, and all cell-based assays, were performed 48 hours after drug application unless otherwise noted. All experiments with error bars were performed in triplicate and shown as mean values with standard error unless otherwise noted. Cell mass was measured using CellTITER assays according to the manufacturer's instructions (Promega, Madison, Wis.). Cell number and viability were assessed using the Guava PCA and Viacount reagent according to instructions (Guava Technologies, Heyward, Calif.). Soft agar assays were performed as previously described (15) and scored either manually after 4 weeks or using as automated reader after 6 weeks. The constitutively active Akt stable cell line was made by transfecting DAOY cells with myristolated Akt (pCB6-IMy-Akt-HA) or control (pCB6+) plasmids (kind gifts from Susan J. Baker) and selecting and maintaining clones in 0.8 mg/ml G418. Soft agar assays were performed as previously described, with colonies counted using an automated reader (15).
Flow cytometric analysis of S-phase fraction and cell cycle kinetics was performed using a FACSCalibur (Becton Dickinson, San Jose, Calif.) with CELL Quest, version 3.3 software (15). CD133 studies were performed using the same instrument, with antibodies from Miltenyi (Miltenyi Biotec, Auburn, Calif.) according to the manufacturer's instructions. Cells expressing levels of CD133 higher than those seen in IgG controls were considered positive. For analyses of side population, cells (10^6/ml) were incubated with Hoechst 33342 (3 μM, Molecular Probes, Carlsbad, Calif.) for 90 minutes at 37° C. in DMEM containing 2% FBS. Prior to analysis, cells were washed and resuspended in 2 μg/ml PI (Sigma, St. Louis, Mo.). Cells were analyzed on a LSR flow cytometer equipped with 424/44 nm band pass and 670 nm long pass optical filters (Omega Optical, Brattleboro, Vt.). To ensure proper identification of SP cells, cells were incubated as above with the addition of 50 μM verapamil (Sigma).

Data set [4] has as its system DAOY. Briefly: Apoptosis by cleaved caspase 3 immunofluorescence in nestin-positive and nestin-negative cells. Format: cell-based. As to conditions: 2 μM, 48 hours.
The subject of data set [5] is DAOY:NICD2. Briefly: Tumor engraftment in mice treated intraperitoneally after subcutaneous cell injection. As to conditions: 0.5 mg i.p. for five consecutive days. Type of data set: in vivo, athymic nude mice. The procedure: (§3) FIG. 8G is a graph plotting xenograft volume against number of days following injection of DAOY and DAOY:NIC2D cells in athymic nude mice, which were either treated with vehicle or 0.5 mg i.p. of GSI-18 for 5 consecutive days following subcutaneous tumor injection.
(§4) As a test of the requirement for ongoing Notch activity during tumor engraftment, animals were treated with GSI-18 after subcutaneously injecting DAOY and DAOY:NICD2 cells into their left and right flanks. A treatment group of four mice received intraperitoneal injections containing 0.5 mg GSI-18 in DMSO for five consecutive days, beginning on the day of xenograft initiation, while the control group was treated with vehicle alone.

In data set [6] the test system is DAOY. The data set is described as above. Format: in vivo, athymic nude mice. To be noted: 0.5 mg i.p. in DMSO for five consecutive days from day of xenograft initiation, four mice. The protocol: as §3, §4
Data set [7] can be described thus: Behavioral or physical changes in treated animals. Format: in vivo, mice. To be noted: 0.5 mg i.p. for five consecutive days. The protocol:
as §4

Data set [8] relates to GBM neurospheres. Description: Proliferation (Ki67 index) in the Nestin positive population of GBM neurospheres. Format: cell-based. From the text:
It has been shown that the Notch signaling pathway regulates normal stem cells in the Central Neural System (CNS), and that GBMs contain cancer stem cells (CSCs) with higher Notch activity (Cancer Research, 64:7011-21, 2004; Cancer Cell, 9:391-403, 2006). However, it has not been known if Notch pathway blockade could target CSCs in GBM. […] In the present study, we used GBM neurospheres to examine the effects of Notch pathway blockade in GBM. […] Furthermore, overexpression of an active form of Notch2 (NICD2) increases tumor growth in vitro.

Data set [9] deals with D283Med. Description: Side population (Hoechst 33342 excretion) flow cytometry. Format: cell-based. To be noted: D283Med; 2 μM GSI-18 or verapamil. The procedure: (§5) The ability to excrete Hoechst dye, which defines SP (also known as “side population”) in flow cytometric analyses, is another marker of tumor-initiating CSC in the blood and brain (7, 8, 20). SP was therefore analyzed to obtain a second measure of the effects of Notch on CSC.
(§6) Flow cytometric analysis of S-phase fraction and cell cycle kinetics was performed using a FACSCalibur (Becton Dickinson, San Jose, Calif.) with CELL Quest, version 3.3 software (15). CD133 studies were performed using the same instrument, with antibodies from Miltenyi (Miltenyi Biotec, Auburn, Calif.) according to the manufacturer's instructions. […] Prior to analysis, cells were washed and resuspended in 2 μg/ml PI (Sigma, St. Louis, Mo.). […] To ensure proper identification of SP cells, cells were incubated as above with the addition of 50 μM verapamil (Sigma).

The test system of data set [10] is D425Med. Described as above. Format: cell-based. As to conditions: D425Med; 2 μM GSI-18 or verapamil. The procedure: as §5, §6
Data set [11] relates to DAOY:NICD2. Described as above. Format: cell-based. As to conditions: 2 μM GSI-18 or verapamil. The procedure:
as §5, §6

In data set [12] the test system is DAOY. The description is as above. Format: cell-based. To be noted: DAOY; 2 μM; untreated SP 1.9%. The protocol:
as §5, §6

In the case of `O=S(=O)(NC1C2CCC1Cc1ccccc1C2)c1cccs1` (stereo not drawn) [GSI-18, [11-endo]-N-(5,6,7,8,9,10-hexahydro-6,9-methanobenzo[α][8]annulen-11-yl)-thiophene-2-sulfonamide], the “G1/G0, S phase and G2/M cell fractions” value in [1] is “increased the G1/G0 cell fraction and decreased the S phase and G2/M fractions”; in data set [2] it was “increased the G1/G0 cell fraction and decreased the S phase and G2/M fractions”. The “decrease in the percentage of CD133-positive cells” value in [3] is given as “less pronounced”. The “increase of apoptotic rate in nestin-positive cells (putative CSC)” value in [4] is on record as “over 10 fold”. In data set [5], the “tumor development in treated animals” value is on record as “Tumors also developed”. Besides, the “engraftment in treated animals” value in data set [6] is “failed to engraft in three of the four”. Further, the “behavioral or physical changes” value in [7] is listed as “No behavioral or physical changes were noted”. The “proliferation (Ki67 index) in the Nestin positive population” value in data set [8] is on record as “decrease in proliferation (Ki67 index)”. In addition, the side population result in data set [9] and in data set [10] was “ablated” in each case. Further, the “side population under NICD2 expression” value in data set [11] was “protected the SP from GSI-18 exposure”. In data set [12], the “remaining cells negative for Hoechst dye (side population)” value came to 0.01%.
